In patent US20210255193A1, “LYSINE REACTIVE PROBES AND USES THEREOF” (The Scripps Research Institute, priority 2017, published 2021):

Key:
Experiment in all cases: competitive isoTOP-ABPP
[1] = target: T1, ABCE1 ATP-binding cassette sub-family E member 1 (Homo sapiens, UniProt P61221); details: for isoTOP-ABPP reactivity ratio at lysine P61221_K191 / isoTOP-ABPP reactivity ratio at lysine P61221_K478 / isoTOP-ABPP ratio (R) at liganded lysine P61221_K191 / isoTOP-ABPP ratio (R) at liganded lysine P61221_K478: 50 uM, in vitro; for isoTOP-ABPP reactivity ratio at lysine P61221_K191 / isoTOP-ABPP reactivity ratio at lysine P61221_K478: 231 sol; for isoTOP-ABPP ratio (R) at liganded lysine P61221_K191 / isoTOP-ABPP ratio (R) at liganded lysine P61221_K478: sol, 231
T1 construct: isoTOP-ABPP experiments performed in cell lysates (in vitro); endogenous in cells; host or cells: soluble proteome of human cancer cell lines (MDA-MB-231, Ramos, Jurkat)
Experimental: (§1) In vitro covalent fragment treatment for isoTOP-ABPP. All compounds were made up as solutions in DMSO (100×) and were used at a final concentration of 50 μM for activated esters and 100 μM for guanidinylating agents. For each profiling sample, 0.5 ml of lysate was treated with 5 μl of the 100× compound stock solution or 5 μl of DMSO. Samples were treated with activated esters for
(§2) STP-alkyne labeling and click chemistry. For concentration-dependent reactivity measurements by isoTOP-ABPP, 0.5 ml proteome aliquots were treated at ambient temperature with 1 mM STP-alkyne 1 (5 μl of 100 mM stock in DMSO) and 0.1 mM STP alkyne 1 (5 μl of 10 mM stock in DMSO), respectively. For competitive isoTOP-ABPP, after in vitro fragment treatment (detailed above), the samples were labeled for 1 h at ambient temperature with 0.1 mM STP-alkyne 1 (5 μl of 10 mM stock in DMSO). Samples were conjugated by copper-mediated azide-alkyne cycloaddition (CuAAC) to either the light (1 mM STP-alkyne or fragment treated) or heavy (0.1 mM STP-alkyne or DMSO treated) TEV tags (10 μl of 5 mM stocks in DMSO, final concentration=100 μM) using tris(2-carboxyethyl)phosphine hydrochloride
(§3) R value calculation and processing. The ratios of light and heavy MS1 peaks for each unique peptide were quantified with a CIMAGE software using default parameters (3 MS1 acquisitions per peak and signal to noise threshold set to 2.5). For reactivity measurements by isoTOP-ABPP, the R value was calculated from the ratio of MS1 peak areas, comparing the 1 mM STP alkyne sample (light TEV tag) with the 0.1 mM STP alkyne sample (heavy TEV tag). For competitive isoTOP-ABPP, the R value was calculated from the ratio of MS1 peak areas, comparing the DMSO treated sample (heavy TEV tag) with the compound treated sample (light TEV tag). […] Ratios for unique peptide entries are calculated for each experiment; overlapping peptides with the same modified lysine (for example, different charge states, MudPIT chromatographic steps or tryptic termini) are grouped together and the median ratio is reported as the final ratio (R). The peptide ratios reported by CIMAGE were further filtered to ensure the removal or correction of low-quality ratios in each individual data set. The quality filters applied were the following: removal of half tryptic peptides; for ratios with high standard deviations from the median (90% of the median or above) the lowest ratio was taken instead of the median; removal of peptides with R=20 and only a single MS2 event triggered during the elution of the parent ion; manual annotation of all the peptides with ratios of 20, removing any peptides with low quality elution profiles that remained after the previous curation steps (only done for competitive isoTOP-ABPP).
(§4) Cross-data processing for fragment screening. For compound treated samples, biological replicates of the same condition were averaged, if the standard deviation was below 60% of the mean; otherwise, for lysines with at least one R value <4 for a particular compound, the lowest value of the ratio set was taken. For lysines, where all R values for a particular compound were ≥4, the average was reported. For peptides containing several possible modified lysines, the lysine with the highest number of quantification events was used for analysis and the remaining, redundant peptides were reported as alternative modification sites. Peptides included in the aggregate dataset (those used for further bioinformatics and statistical analyses) were required to have been quantified in 2 experiments for competitive isoTOP-ABPP. Lysines were categorized as liganded, if they had at least one ratio R≥4 (hit fragments). For liganded lysines with R=20 for all liganding events, lysines were required to have been quantified with R=20 in two separate experiments and were further required to have been quantified with R<20 in one additional experiment.

[2] = target: T2, AGFG1 Arf-GAP domain and FG repeat-containing protein 1 (Homo sapiens, UniProt P52594); type: binding; set-up: key to isoTOP-ABPP reactivity ratio at lysine P52594_K134: R = MS1 peak area ratio, DMSO (heavy) / compound-treated (light); details: for isoTOP-ABPP reactivity ratio at lysine P52594_K134 / isoTOP-ABPP ratio (R) at liganded lysine P52594_K134: 50 uM, in vitro; for isoTOP-ABPP reactivity ratio at lysine P52594_K134: 231 sol; for isoTOP-ABPP ratio (R) at liganded lysine P52594_K134: sol, 231
T2 construct: isoTOP-ABPP experiments performed in cell lysates (in vitro); endogenous in cells; host or cells: soluble proteome of human cancer cell lines (MDA-MB-231, Ramos, Jurkat)
T2 sequence (P52594 1-562): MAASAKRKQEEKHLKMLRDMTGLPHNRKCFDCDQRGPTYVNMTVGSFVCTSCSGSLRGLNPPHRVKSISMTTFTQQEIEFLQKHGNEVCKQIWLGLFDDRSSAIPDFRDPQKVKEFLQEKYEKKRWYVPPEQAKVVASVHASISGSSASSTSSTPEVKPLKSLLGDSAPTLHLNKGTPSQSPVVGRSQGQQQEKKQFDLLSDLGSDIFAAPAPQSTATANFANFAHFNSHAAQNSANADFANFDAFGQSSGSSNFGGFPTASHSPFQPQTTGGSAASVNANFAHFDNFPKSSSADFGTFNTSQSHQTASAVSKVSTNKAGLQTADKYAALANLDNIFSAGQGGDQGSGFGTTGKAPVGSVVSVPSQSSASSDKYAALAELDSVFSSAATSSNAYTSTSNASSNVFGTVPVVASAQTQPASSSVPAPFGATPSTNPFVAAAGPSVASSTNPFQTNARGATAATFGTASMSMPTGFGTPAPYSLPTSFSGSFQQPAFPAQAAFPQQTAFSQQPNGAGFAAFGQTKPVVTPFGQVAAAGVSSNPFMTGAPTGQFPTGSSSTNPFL
Experimental: as §1, §2, §3, §4

[3] = target: T3, HDHD3 Haloacid dehalogenase-like hydrolase domain-containing protein 3 (Homo sapiens, UniProt Q9BSH5); type: binding; set-up: key to isoTOP-ABPP reactivity ratio at lysine Q9BSH5_K15: R = MS1 peak area ratio, DMSO (heavy) / compound-treated (light); details: for isoTOP-ABPP reactivity ratio at lysine Q9BSH5_K15 / isoTOP-ABPP ratio (R) at liganded lysine Q9BSH5_K15: 50 uM, in vitro; for isoTOP-ABPP reactivity ratio at lysine Q9BSH5_K15: 231 sol; for isoTOP-ABPP ratio (R) at liganded lysine Q9BSH5_K15: sol, 231
T3 construct: isoTOP-ABPP experiments performed in cell lysates (in vitro); endogenous in cells; host or cells: soluble proteome of human cancer cell lines (MDA-MB-231; Ramos and Jurkat also prepared)
T3 sequence (Q9BSH5 1-251): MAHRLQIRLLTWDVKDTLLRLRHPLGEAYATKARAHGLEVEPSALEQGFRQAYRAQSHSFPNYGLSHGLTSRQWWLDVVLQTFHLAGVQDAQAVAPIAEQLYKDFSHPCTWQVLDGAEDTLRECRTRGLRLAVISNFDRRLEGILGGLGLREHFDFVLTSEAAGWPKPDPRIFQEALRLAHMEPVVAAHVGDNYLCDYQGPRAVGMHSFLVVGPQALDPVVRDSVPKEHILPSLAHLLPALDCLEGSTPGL
Experimental: as §1, §2, §3, §4

O=C(Oc1ccc([N+](=O)[O-])cc1[N+](=O)[O-])c1cc(C(F)(F)F)cc(C(F)(F)F)c1 [fragment 31, 2,4-Dinitrophenyl 3,5-bis(trifluoromethyl)benzoate]
isoTOP-ABPP reactivity ratio at lysine P61221_K191 [1]: 1.4 | isoTOP-ABPP reactivity ratio at lysine P61221_K478 [1]: 1.1 | isoTOP-ABPP reactivity ratio at lysine P52594_K134 [2]: 1.2 | isoTOP-ABPP reactivity ratio at lysine Q9BSH5_K15 [3]: 4.6

O=C(CCc1cn(-c2ccccc2)nc1-c1ccccc1)Oc1ccc([N+](=O)[O-])cc1[N+](=O)[O-] [fragment 29, 2,4-Dinitrophenyl 3-(1,3-diphenyl-1H-pyrazol-4-yl)propanoate]
isoTOP-ABPP reactivity ratio at lysine P61221_K191 [1]: 1.0 | isoTOP-ABPP reactivity ratio at lysine P61221_K478 [1]: 1.2 | isoTOP-ABPP reactivity ratio at lysine P52594_K134 [2]: 1.4 | isoTOP-ABPP reactivity ratio at lysine Q9BSH5_K15 [3]: 20.0

CC(=O)Oc1ccc([N+](=O)[O-])cc1[N+](=O)[O-] [fragment 43, 2,4-Dinitrophenyl acetate]
isoTOP-ABPP ratio (R) at liganded lysine P61221_K191 [1]: 1.3 | isoTOP-ABPP ratio (R) at liganded lysine P61221_K478 [1]: 1.4 | isoTOP-ABPP ratio (R) at liganded lysine P52594_K134 [2]: 4.8 | isoTOP-ABPP ratio (R) at liganded lysine Q9BSH5_K15 [3]: 3.1

O=C(Oc1c(F)c(F)cc(F)c1F)c1cc(C(F)(F)F)cc(C(F)(F)F)c1 [fragment 48, 2,3,5,6-Tetrafluorophenyl 3,5-bis(trifluoromethyl)benzoate]
isoTOP-ABPP ratio, lysine P61221_K191 ([1]; 50 uM_231_sol_in vitro): 1.0 | isoTOP-ABPP ratio, lysine P61221_K478 ([1]; 50 uM_231_sol_in vitro): 1.1 | isoTOP-ABPP ratio, lysine P52594_K134 ([2]; 50 uM_231_sol_in vitro): 1.0 | isoTOP-ABPP ratio, lysine Q9BSH5_K15 ([3]; 50 uM_231_sol_in vitro): 1.0

CC(C)(C)OC(=O)N=C(NC(=O)OC(C)(C)C)n1cccn1 [fragment 50, reference compound]
isoTOP-ABPP ratio, lysine P61221_K191 ([1]; 100 uM_231_sol_in vitro): 14.1 | isoTOP-ABPP ratio, lysine P61221_K478 ([1]; 100 uM_231_sol_in vitro): 2.1 | isoTOP-ABPP ratio, lysine P52594_K134 ([2]; 100 uM_231_sol_in vitro): 1.0 | isoTOP-ABPP ratio, lysine Q9BSH5_K15 ([3]; 100 uM_231_sol_in vitro): 2.8

N#Cc1ccc(C(=O)Oc2ccc([N+](=O)[O-])cc2[N+](=O)[O-])cc1 [fragment 44, 2,4-Dinitrophenyl 4-cyanobenzoate]
isoTOP-ABPP ratio, lysine P61221_K191 ([1]; 50 uM_231_sol_in vitro): 1.1 | isoTOP-ABPP ratio, lysine P61221_K478 ([1]; 50 uM_231_sol_in vitro): 0.9 | isoTOP-ABPP ratio, lysine P52594_K134 ([2]; 50 uM_231_sol_in vitro): 1.5 | isoTOP-ABPP ratio, lysine Q9BSH5_K15 ([3]; 50 uM_231_sol_in vitro): 20.0

O=C(Oc1ccc([N+](=O)[O-])cc1[N+](=O)[O-])c1ccc(-c2ccccc2)cc1 [fragment 37, 2,4-Dinitrophenyl [1,1′-biphenyl]-4-carboxylate]
isoTOP-ABPP ratio (R) at liganded lysine P61221_K191 [1]: 0.9 | isoTOP-ABPP ratio (R) at liganded lysine P61221_K478 [1]: 1.0 | isoTOP-ABPP ratio (R) at liganded lysine P52594_K134 [2]: 1.1 | isoTOP-ABPP ratio (R) at liganded lysine Q9BSH5_K15 [3]: 4.3

O=C(CCc1ccc2c(c1)OCO2)Oc1ccc([N+](=O)[O-])cc1[N+](=O)[O-] [fragment 45, 2,4-Dinitrophenyl 3-(benzo[d][1,3]dioxol-5-yl)propanoate]
isoTOP-ABPP ratio, lysine P61221_K191 ([1]; 50 uM_231_sol_in vitro): 1.1 | isoTOP-ABPP ratio, lysine P61221_K478 ([1]; 50 uM_231_sol_in vitro): 1.5 | isoTOP-ABPP ratio, lysine P52594_K134 ([2]; 50 uM_231_sol_in vitro): 20.0 | isoTOP-ABPP ratio, lysine Q9BSH5_K15 ([3]; 50 uM_231_sol_in vitro): 3.4
